Common to all, as to assay type: biochemical
The target of one experiment is T1, BTK T474I (Homo sapiens, UniProt Q06187, T474I).
T1 construct: purchased SignalChem B10-12HH
The experiment is described as follows: Kinase activity inhibition assay (HTRF TK Kit). The text has this: (§1) In this assay, the HTRF TK Kit (Catalog No. 62TK0PEC) provided by Cisbio was used to detect the inhibitory activity of compounds on BTK kinase, BTK T474I kinase and BTK C481 S kinase and the selectivity of compounds relative to EGFR, ITK and TEC kinases.
(§2) Reagents and consumables: BTK kinase (Invitrogen, Catalog No. PV3587), BTK C481S (Carna, Product No. 08-547), BTK T474I(SignalChem Product No. B10-12HH), ITK (Cama, Product No. 08-181), EGFR (Cama, Product No. 08-115), TEC (Carna, Product No. 08-182), HTRF-TK kit (Cisbio, Product No. 62TK0PEC), MgCl2 (Sigma, Product No. M1028), MnCl2 (Sigma, Product No. M1787), DTT (Sigma, Product No. D0632), ATP (Sigma, Product No. A7699-1g), DMSO (Sigma, Product No. D2650), 384-well plate (PE, Product No. 6008280).
(§3) The entire operation steps were carried out on ice, and the total reaction volume was 10µL. A compound (4µL), substrate and ATP (4µL), and kinase (2µL) were added in sequence to a 384-well plate, and the plate was shaken for 30 seconds. The mixture was reacted at room temperature for an appropriate time, and then the detection reagent was added. The resulting mixture was reacted at room temperature for 1 hour, and then the plate was assayed with a microplate reader. The specific steps were as follows: • a) a 1 × kinase buffer solution required for the kinase assay was calculated according to the amount of the test compound, and prepared as needed; • b) 2.5 × working concentration of a compound was prepared, 100-fold gradient concentration solutions of a compound were diluted by 40 × to the desired concentration, respectively, mixed well, and added to each well at 4 µL per well; • c) 5 × working concentration of the substrate and ATP were prepared, mixed in a ratio of 1:1 before being added to the 384-well plate, and added to each well at 4 µL per well; • d) 5 × working concentration of a kinase was prepared, 2 µL of which was added to each well; • e) the plate was shaken on a microplate shaker for 30 seconds, sealed with a sealing membrane, and the mixture was reacted at room temperature for an appropriate time; • f) 4 × working concentration of streptavidin XL-665 and TK antibody-cryptate compound were prepared, mixed in a ratio of 1:1 before being added to the 384-well plate, and added to each well at 10 µL per well; • g) the mixture was reacted at room temperature for 1 hour, and then the plate was read; • h) the wells with only substrate, ATP and 1% DMSO added but no kinase were blank control wells, and the wells with only substrate, ATP, 1% DMSO and kinase were positive control wells.
(§4) Readings: The values of 620 nm (cryptate) and 665 nm (XL665) were read with a BioTek Synerg Neo2 microplate reader, the ratio of 665/620 for each well was calculated, and the data were exported.
(§5) Data analysis: IC50 was calculated using GraphPad Prism 7.0 software.
(§6) The IC50 (half-maximal inhibitory concentration) of the compound was obtained using the following nonlinear fitting formula: Y = Bottom + (Top−Bottom)/(1+10^(∧)((LogIC50−X)*HillSlope)) [formula] • X: Log value of the compound concentration • Y: Inhibition rate (% inhibition) • Top: Maximum response • Bottom: Baseline response • HillSlope: Slope of the curve
(§7) The formula for calculating kinase inhibition rate (inhibition rate %) was: [formula]
(In general: Time-resolved FRET reads energy transfer from a long-lived donor to a nearby acceptor.)

A further experiment concerns the target T2, BTK kinase (Homo sapiens, UniProt Q06187).
T2 construct: purchased Invitrogen PV3587
Put plainly: Kinase activity inhibition assay (HTRF TK Kit).
Source text: as §1, §2, §3, §4, §5, §6, §7

For another experiment, the target named is T3, BTK C481S (Homo sapiens, UniProt Q06187, C481S).
T3 construct: purchased Carna 08-547
T3 sequence (Q06187 whole entry C481S): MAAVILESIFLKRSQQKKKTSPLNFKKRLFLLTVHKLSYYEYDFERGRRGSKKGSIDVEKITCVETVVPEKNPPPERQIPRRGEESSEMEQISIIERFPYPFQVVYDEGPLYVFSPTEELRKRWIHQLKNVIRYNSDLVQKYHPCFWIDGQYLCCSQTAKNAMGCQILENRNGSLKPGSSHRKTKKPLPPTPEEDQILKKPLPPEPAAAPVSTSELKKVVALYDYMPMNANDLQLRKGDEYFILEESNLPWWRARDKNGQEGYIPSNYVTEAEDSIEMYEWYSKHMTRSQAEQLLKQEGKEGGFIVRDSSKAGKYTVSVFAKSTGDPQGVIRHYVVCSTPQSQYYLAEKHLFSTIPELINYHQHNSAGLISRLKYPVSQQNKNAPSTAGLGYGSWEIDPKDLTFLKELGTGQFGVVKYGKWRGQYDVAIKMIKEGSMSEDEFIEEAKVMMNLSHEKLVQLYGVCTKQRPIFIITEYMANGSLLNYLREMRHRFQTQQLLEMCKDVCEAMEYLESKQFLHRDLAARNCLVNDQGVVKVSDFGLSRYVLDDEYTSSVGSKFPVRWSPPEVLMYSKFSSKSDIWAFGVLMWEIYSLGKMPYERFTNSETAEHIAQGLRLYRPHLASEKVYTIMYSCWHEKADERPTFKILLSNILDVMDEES
Put plainly: Kinase activity inhibition assay (HTRF TK Kit).
Source text: as §1, §2, §3, §4, §5, §6, §7

In another experiment the target is T4, EGFR (Homo sapiens, UniProt P00533).
T4 construct: purchased Carna 08-115
T4 sequence (P00533 669-1210 limits assumed): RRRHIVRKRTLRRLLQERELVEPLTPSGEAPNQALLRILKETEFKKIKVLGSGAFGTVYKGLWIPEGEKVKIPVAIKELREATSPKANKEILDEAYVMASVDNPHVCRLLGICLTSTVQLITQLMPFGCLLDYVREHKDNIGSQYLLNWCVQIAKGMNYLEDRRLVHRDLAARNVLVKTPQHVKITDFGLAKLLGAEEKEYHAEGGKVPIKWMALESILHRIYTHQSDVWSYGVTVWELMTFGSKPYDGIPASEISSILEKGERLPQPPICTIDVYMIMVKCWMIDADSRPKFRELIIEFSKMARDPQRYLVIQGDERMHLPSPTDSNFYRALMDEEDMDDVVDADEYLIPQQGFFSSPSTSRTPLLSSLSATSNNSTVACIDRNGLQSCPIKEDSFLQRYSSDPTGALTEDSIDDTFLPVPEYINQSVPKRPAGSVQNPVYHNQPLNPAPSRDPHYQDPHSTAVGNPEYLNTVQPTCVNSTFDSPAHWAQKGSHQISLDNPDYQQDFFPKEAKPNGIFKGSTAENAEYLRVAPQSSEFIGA
Put plainly: Kinase activity inhibition assay (HTRF TK Kit), selectivity.
Source text: as §1, §2, §3, §4, §5, §6, §7

Another experiment addresses T5, ITK (Homo sapiens, UniProt Q08881).
T5 construct: purchased Carna 08-181
T5 sequence (Q08881 1-620): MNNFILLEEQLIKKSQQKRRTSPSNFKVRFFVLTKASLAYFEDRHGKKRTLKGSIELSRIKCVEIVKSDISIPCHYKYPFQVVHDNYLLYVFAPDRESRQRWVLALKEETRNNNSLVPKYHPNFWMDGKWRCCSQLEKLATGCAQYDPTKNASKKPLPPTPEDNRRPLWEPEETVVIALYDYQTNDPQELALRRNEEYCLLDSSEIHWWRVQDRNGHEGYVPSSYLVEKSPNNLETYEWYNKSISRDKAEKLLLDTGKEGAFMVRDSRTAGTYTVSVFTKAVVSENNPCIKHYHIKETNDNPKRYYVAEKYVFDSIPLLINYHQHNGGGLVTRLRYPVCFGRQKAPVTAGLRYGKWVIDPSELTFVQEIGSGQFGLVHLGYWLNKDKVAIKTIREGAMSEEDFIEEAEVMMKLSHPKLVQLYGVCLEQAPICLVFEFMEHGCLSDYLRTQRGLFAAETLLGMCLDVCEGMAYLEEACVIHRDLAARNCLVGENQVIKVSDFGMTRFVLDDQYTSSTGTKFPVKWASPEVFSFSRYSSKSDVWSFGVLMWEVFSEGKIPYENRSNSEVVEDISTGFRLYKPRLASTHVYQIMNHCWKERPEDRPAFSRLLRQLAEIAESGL
Described as above.
Source text: as §1, §2, §3, §4, §5, §6, §7

A further experiment concerns the target T6, TEC (Homo sapiens, UniProt P42680).
T6 construct: purchased Carna 08-182
T6 sequence (P42680 1-631): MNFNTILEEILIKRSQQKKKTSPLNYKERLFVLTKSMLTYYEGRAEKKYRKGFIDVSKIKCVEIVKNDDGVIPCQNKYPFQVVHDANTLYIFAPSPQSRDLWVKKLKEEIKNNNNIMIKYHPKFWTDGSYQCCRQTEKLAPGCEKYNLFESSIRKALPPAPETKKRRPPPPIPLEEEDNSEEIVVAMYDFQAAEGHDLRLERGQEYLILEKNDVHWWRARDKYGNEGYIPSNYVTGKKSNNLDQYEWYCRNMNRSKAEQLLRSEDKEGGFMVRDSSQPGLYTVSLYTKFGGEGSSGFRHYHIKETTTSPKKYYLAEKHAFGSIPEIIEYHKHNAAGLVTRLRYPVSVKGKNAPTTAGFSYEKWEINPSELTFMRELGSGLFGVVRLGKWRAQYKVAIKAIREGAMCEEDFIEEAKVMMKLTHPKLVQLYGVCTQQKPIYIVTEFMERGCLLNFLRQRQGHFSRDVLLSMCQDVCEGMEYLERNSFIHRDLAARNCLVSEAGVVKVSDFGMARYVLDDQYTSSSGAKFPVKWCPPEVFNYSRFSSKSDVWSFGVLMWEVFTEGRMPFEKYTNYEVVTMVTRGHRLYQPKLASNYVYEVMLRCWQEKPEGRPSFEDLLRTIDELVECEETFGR
The experiment is described as above.
Source text: as §1, §2, §3, §4, §5, §6, §7

T1 sequence (Q06187 whole entry T474I): as the sequence (Q06187 whole entry C481S) above, with T474I, S481C counted along it
T2 sequence (Q06187 whole entry): as the sequence (Q06187 whole entry C481S) above, with S481C counted along it

For orientation: IC50 means the concentration that inhibits the measured activity by half. For `COc1ccc(F)cc1C(=O)NCc1ccc(-c2nc(C(C)C(F)(F)F)cc3[nH]nc(N)c23)cc1` (single isomer, unassigned) [Example 2, N-(4-(3-amino-6-(1,1,1-trifluoropropan-2-yl)-1H-pyrazolo[4,3-c]pyridin-4-yl)benzyl)-5-fluoro-2-methoxybenzamide], the IC50 is 50 to 500 nM on BTK T474I; 1 to 5 nM on BTK kinase; 1 to 5 nM at BTK C481S; 50 to 500 nM on EGFR; above 500 nM at ITK; 50 to 500 nM at TEC.
As to `COc1ccc(F)cc1C(=O)NCc1ccc(-c2nc(C(C)C(F)(F)F)cc3[nH]nc(N)c23)cc1` (single isomer, unassigned) [Example 3, N-(4-(3-amino-6-(1,1,1-trifluoropropan-2-yl)-1H-pyrazolo[4,3-c]pyridin-4-yl)benzyl)-5-fluoro-2-methoxybenzamide], the IC50 on BTK T474I is 50 to 500 nM; on BTK kinase, 1 to 5 nM; at BTK C481S it was 1 to 5 nM; at EGFR it was above 500 nM; on ITK, above 500 nM; on TEC, 50 to 500 nM.
On to `COc1ccc(F)cc1C(=O)NCc1ccc(-c2nc(C(C)C(F)(F)F)c(-c3ccn(C)n3)c3[nH]nc(N)c23)cc1` (single isomer, unassigned) [Example 6-1, N-(4-(3-amino-7-(1-methyl-1H-pyrazol-3-yl)-6-(1,1,1-trifluoropropan-2-yl)-1H-pyrazolo[4,3-c]pyridin-4-yl)benzyl)-5-fluoro-2-methoxybenzamide], for which the IC50 at BTK T474I was 5 to 50 nM; at BTK kinase, 1 to 5 nM; on BTK C481S, 1 to 5 nM; at EGFR, above 500 nM; at ITK, above 500 nM; on TEC it was 50 to 500 nM.
On to `COc1ccc(F)cc1C(=O)NCc1ccc(-c2nc(C(C)C(F)(F)F)c(-c3ccn(C)n3)c3[nH]nc(N)c23)cc1` (single isomer, unassigned) [Example 6-2, N-(4-(3-amino-7-(1-methyl-1H-pyrazol-3-yl)-6-(1,1,1-trifluoropropan-2-yl)-1H-pyrazolo[4,3-c]pyridin-4-yl)benzyl)-5-fluoro-2-methoxybenzamide], for which the IC50 was 5 to 50 nM on BTK T474I; 1 to 5 nM on BTK kinase; 1 to 5 nM at BTK C481S; 50 to 500 nM at EGFR; above 500 nM at ITK; 5 to 50 nM at TEC.
Regarding `COc1ccc(F)cc1C(=O)NCc1ccc(-c2nc(C(C)C(F)(F)F)c(-c3ncccn3)c3[nH]nc(N)c23)cc1` (single isomer, unassigned) [Example 7-1, N-(4-(3-amino-7-(pyrimidin-2-yl)-6-(1,1,1-trifluoropropan-2-yl)-1H-pyrazolo[4,3-c]pyridin-4-yl)benzyl)-5-fluoro-2-methoxybenzamide], the IC50 on BTK T474I is 50 to 500 nM; at BTK kinase it was 1 to 5 nM; on BTK C481S it was 1 to 5 nM; at EGFR, above 500 nM; on ITK it was above 500 nM; on TEC, 5 to 50 nM.
`COc1ccc(F)cc1C(=O)NCc1ccc(-c2nc(C(C)C(F)(F)F)c(-c3ncccn3)c3[nH]nc(N)c23)cc1` (single isomer, unassigned) [Example 7-2, N-(4-(3-amino-7-(pyrimidin-2-yl)-6-(1,1,1-trifluoropropan-2-yl)-1H-pyrazolo[4,3-c]pyridin-4-yl)benzyl)-5-fluoro-2-methoxybenzamide]: the IC50 at BTK T474I is 50 to 500 nM; at BTK kinase, 1 to 5 nM; on BTK C481S it was 1 to 5 nM; on EGFR, above 500 nM; at ITK, above 500 nM; at TEC, 50 to 500 nM.
Turning to `COc1ccc(F)cc1C(=O)NCc1ccc(-c2nc(C(C)C(F)(F)F)cc3[nH]nc(N)c23)cc1` (stereo not drawn) [Example 1, N-(4-(3-amino-6-(1,1,1-trifluoropropan-2-yl)-1H-pyrazolo[4,3-c]pyridin-4-yl)benzyl)-5-fluoro-2-methoxybenzamide], the IC50 at BTK T474I is above 500 nM; at BTK kinase, 5 to 50 nM; at BTK C481S, 5 to 50 nM; on EGFR it was 50 to 500 nM; on ITK it was above 500 nM; at TEC it was above 500 nM.
Take `COc1ccc(F)cc1C(=O)NCc1ccc(-c2nc(C(C)C(F)(F)F)c(-c3ccn(C)n3)c3[nH]nc(N)c23)cc1` (stereo not drawn) [Example 6, N-(4-(3-amino-7-(1-methyl-1H-pyrazol-3-yl)-6-(1,1,1-trifluoropropan-2-yl)-1H-pyrazolo[4,3-c]pyridin-4-yl)benzyl)-5-fluoro-2-methoxybenzamide]: the IC50 on BTK T474I is 5 to 50 nM; at BTK kinase, 1 to 5 nM; on BTK C481S it was 1 to 5 nM; at EGFR it was 50 to 500 nM; on ITK, above 500 nM; at TEC, 5 to 50 nM.
In the case of `COc1ccc(F)cc1C(=O)NCc1ccc(-c2nc(C(C)C(F)(F)F)c(-c3ncccn3)c3[nH]nc(N)c23)cc1` (stereo not drawn) [Example 7, N-(4-(3-amino-7-(pyrimidin-2-yl)-6-(1,1,1-trifluoropropan-2-yl)-1H-pyrazolo[4,3-c]pyridin-4-yl)benzyl)-5-fluoro-2-methoxybenzamide], the IC50 on BTK T474I is 50 to 500 nM; on BTK kinase, 1 to 5 nM; at BTK C481S, 1 to 5 nM; at EGFR, 50 to 500 nM; at ITK it was above 500 nM; on TEC it was 5 to 50 nM.
